Laboratory results reported in the supplement of paper PMC8671470.

What was measured:
Experiment in all cases: cell viability (% survival relative to DMSO control); higher = less cytotoxic
Conditions in all cases: 72 h
[1] = tested on: BV-173
Method: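 8x8 drug-combination matrices (0–5000 nM; rosiglitazone and lestaurtinib 0–1000 nM) were run in BV-173 cells for 72 h with CellTiter-Glo read-out. Survival is normalised to DMSO and 10 µM bortezomib and clipped at 100%.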

[2] = tested on: Mono-Mac-6
Method: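 8x8 drug-combination matrices (0–5000 nM; rosiglitazone and lestaurtinib 0–1000 nM) were run in Mono-Mac-6 cells for 72 h with CellTiter-Glo read-out. Survival is normalised to DMSO and 10 µM bortezomib and clipped at 100%.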

[3] = tested on: HL-60
Method: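 8x8 drug-combination matrices (0-5000 nM; rosiglitazone and lestaurtinib 0-1000 nM) were run in HL-60 cells for 72 h with a CellTiter-Glo read-out. Survival is normalised to DMSO and 10 µM bortezomib and clipped at 100%. Bliss synergy was analysed in SynergyFinder.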

O=C(C1CC1)N1CC[C@@H](C=C2NNC(=O)N2c2ccc(-c3ccc4occc4c3)cc2)C1 + O=C(c1c2ccccc2cc2ccccc12)N1CCC(N2CCC[C@@H](C(=O)N3CCOCC3)C2)CC1 [CP-640186]
cell viability [%]
Conditions	drug1 concentration 5 nM	drug1 concentration 10 nM	drug1 concentration 50 nM	drug1 concentration 100 nM	drug1 concentration 500 nM	drug1 concentration 1000 nM	drug1 concentration 5000 nM
[1], drug2 concentration 5 nM	96.3	> 100	> 100	> 100	97.3	98.1	77.8
[1], drug2 concentration 10 nM	> 100	> 100	87.8	> 100	> 100	96.1	58.3
[1], drug2 concentration 50 nM	> 100	> 100	> 100	> 100	91.1	78.9	97.1
[1], drug2 concentration 100 nM	> 100	> 100	> 100	> 100	> 100	> 100	> 100
[1], drug2 concentration 500 nM	> 100	> 100	> 100	> 100	> 100	> 100	96.6
[1], drug2 concentration 1000 nM	86.4	> 100	> 100	91.9	> 100	> 100	> 100
[1], drug2 concentration 5000 nM	> 100	> 100	87.5	99.5	91.6	> 100	> 100
[2], drug2 concentration 5 nM	77.8	> 100	88.2	84.8	85.5	88.8	> 100
[2], drug2 concentration 10 nM	> 100	> 100	> 100	90.7	81.2	> 100	63.7
[2], drug2 concentration 50 nM	99.3	89.7	> 100	> 100	> 100	> 100	> 100
[2], drug2 concentration 100 nM	87.7	> 100	> 100	99.8	> 100	91.2	87.4
[2], drug2 concentration 500 nM	95.2	87	87.4	86.2	> 100	> 100	79.5
[2], drug2 concentration 1000 nM	88.8	> 100	> 100	84.9	> 100	98.8	99.4
[2], drug2 concentration 5000 nM	> 100	70.2	98.1	99.4	81.6	72.4	> 100
[3], drug2 concentration 5 nM	79.6	> 100	88.2	88.2	60	71.7	88.2
[3], drug2 concentration 10 nM	96.6	97.7	86.2	86.2	91.2	72	64.5
[3], drug2 concentration 50 nM	90	95.2	82.5	88	81.8	68.2	74.1
[3], drug2 concentration 100 nM	88	90	78.2	90.5	74.4	63.6	72.3
[3], drug2 concentration 500 nM	86.2	88.5	75.1	91.1	70.5	57.8	71.1
[3], drug2 concentration 1000 nM	84	84.2	70.3	75.1	61.5	56.3	79.2
[3], drug2 concentration 5000 nM	77.2	79.4	72	74.6	52.4	53.7	66.5

CC(C)c1onc(-c2c(Cl)cccc2Cl)c1COc1ccc(/C=C/c2cccc(C(=O)O)c2)c(Cl)c1 [GW4064] + Cn1cc(-c2ccncc2)c(-c2ccc(OCc3ccc4ccccc4n3)cc2)n1 [PF-02545920]
cell viability [%]
Conditions	drug1 concentration 5 nM	drug1 concentration 10 nM	drug1 concentration 50 nM	drug1 concentration 100 nM	drug1 concentration 500 nM	drug1 concentration 1000 nM	drug1 concentration 5000 nM
[1], drug2 concentration 5 nM	> 100	> 100	> 100	90.6	> 100	> 100	> 100
[1], drug2 concentration 10 nM	> 100	95.5	95.6	> 100	> 100	> 100	98
[1], drug2 concentration 50 nM	> 100	88.5	> 100	> 100	> 100	80.7	74
[1], drug2 concentration 100 nM	> 100	> 100	> 100	> 100	> 100	> 100	97
[1], drug2 concentration 500 nM	97.3	93.2	96	> 100	> 100	> 100	> 100
[1], drug2 concentration 1000 nM	> 100	> 100	82.7	99.2	95.5	87.3	81.7
[1], drug2 concentration 5000 nM	90.7	90.2	79.3	96.2	92.8	78.5	> 100
[2], drug2 concentration 5 nM	> 100	> 100	> 100	85.7	80.4	88.9	> 100
[2], drug2 concentration 10 nM	92.5	> 100	79.3	78.5	87.6	94.3	99.8
[2], drug2 concentration 50 nM	> 100	> 100	> 100	86	97.2	66.9	99.9
[2], drug2 concentration 100 nM	> 100	90.5	> 100	86.8	> 100	> 100	82.2
[2], drug2 concentration 500 nM	81.2	69.3	> 100	> 100	94.8	87.9	> 100
[2], drug2 concentration 1000 nM	93.3	> 100	77.2	98.6	96.1	89.8	81.4
[2], drug2 concentration 5000 nM	74.5	91.6	65	76.7	96.5	85.1	87.7
[3], drug2 concentration 5 nM	> 100	98.6	> 100	> 100	> 100	> 100	78.8
[3], drug2 concentration 10 nM	> 100	> 100	> 100	> 100	97	> 100	89.8
[3], drug2 concentration 50 nM	> 100	> 100	> 100	> 100	> 100	68.7	> 100
[3], drug2 concentration 100 nM	81.7	> 100	88.4	76.3	> 100	> 100	53.4
[3], drug2 concentration 500 nM	> 100	65.9	> 100	> 100	> 100	> 100	> 100
[3], drug2 concentration 1000 nM	97.1	> 100	> 100	> 100	> 100	46.6	> 100
[3], drug2 concentration 5000 nM	> 100	> 100	> 100	> 100	> 100	89.8	> 100
